Assay results taken from patent publication US5053070A, “Pyrimidine derivatives, preparation processes thereof, herbicide containing the same, and herbicidal compositions containing the same along with other active ingredient” (Mitsui Toatsu Chemicals, Incorporated, priority 1988, dated 1991).

Experiments:
[1] = tested on: ALS (acetolactate syntase); assay: ALS enzyme assay (Test 1); format: biochemical, barnyardgrass; conditions: 1,000 ppm (0.5 mg/0.5 ml)
In short: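 Partially purified ALS from dark-grown pea and barnyardgrass seedlings incubated 1 h at 30° C with pyruvate, TPP, MgCl2 and FAD. Compounds tested at 1,000 ppm (0.5 mg/0.5 ml). Acetoin formed detected colorimetrically at 525 nm via creatine/α-naphthol, relative to blank and acid-stopped controls.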

common lambsquarters = assay: Upland foliar application test (Test 3); format: in vivo; conditions: 30 g ai/a, foliar spray at 2-3 leaves, 30th day
In short: (§1)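 Plants were grown from seed in upland-field soil in a greenhouse. At the 2-3 leaf stage, an emulsion of each compound, diluted with water, was sprayed on the foliage at a rate equal to 5 l per are with a pressure-operated ULV sprayer. Damage and crop injury were scored on day 30.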

johnsongrass [2] = assay: Upland foliar application test (Test 3); format: in vivo; conditions: 30 g ai/a, foliar spray at 2-3 leaves, 30th day
In short: as §1

green foxtail [3] = assay: Upland foliar application test (Test 3); format: in vivo; conditions: 30 g ai/a, foliar spray at 2-3 leaves, 30th day
In short: as §1

large crabgrass = assay: Upland foliar application test (Test 3); format: in vivo; conditions: 30 g ai/a, foliar spray at 2-3 leaves, 30th day
In short: as §1

redroot pigweed = assay: Upland foliar application test (Test 3); format: in vivo; conditions: 30 g ai/a, foliar spray at 2-3 leaves, 30th day
In short: as §1

foxtail meadow [4] = assay: Upland foliar application test (Test 3); format: in vivo; conditions: 30 g ai/a, foliar spray at 2-3 leaves, 30th day
In short: as §1

barnyardgrass [5] = assay: Upland foliar application test (Test 3); format: in vivo; conditions: 30 g ai/a, foliar spray at 2-3 leaves, 30th day
In short: as §1

bulrush = assay: Treatment of soil under submerged condition, pre-emergence (Test 4); format: in vivo; conditions: 30 g ai/a granule, 30 days later
In short: (§2)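 Flooded soil pots; weeds sown/planted, rice transplanted (2 pairs, 2–3 leaf), greenhouse. Granule applied day 1, pre-emergence of weeds. Scored at 30 d for weed damage and rice injury.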

Sagittaria pygmaea = assay: as above; format: in vivo; conditions: 30 g ai/a granule, 30 days later
In short: as §2

barnyardgrass [6] = assay: as above; format: in vivo; conditions: 30 g ai/a granule, 30 days later
In short: as §2

johnsongrass [7] = assay: Upland soil application test (Test 2); format: in vivo; conditions: 30 g ai/a, soil spray before emergence, 30 days later
In short: (§3)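 Weed damage was rated at 30 days by comparing air-dried plant weights against untreated controls. Compound had been applied as a water-diluted wettable powder (10 l per are), sprayed on the soil surface one day after sowing, before emergence, with weed seed incorporated in upland field soil.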

green foxtail [8] = assay: Upland soil application test (Test 2); format: in vivo; conditions: 30 g ai/a, soil spray before emergence, 30 days later
In short: as §3

foxtail meadow [9] = assay: Upland soil application test (Test 2); format: in vivo; conditions: 30 g ai/a, soil spray before emergence, 30 days later
In short: as §3

rice = assay: Treatment of soil under submerged condition, pre-emergence (Test 4), injury; format: in vivo; conditions: 30 g ai/a granule, 30 days later
In short: as §2

Compound	Inhibitory activity (%) Barnyardgrass [1] [%]	Herbicidal effects Common lambsquarters (common lambsquarters)	Herbicidal effects Johnsongrass (johnsongrass [2])	Herbicidal effects Green foxtail (green foxtail [3])	Herbicidal effects Large crabgrass (large crabgrass)	Herbicidal effects Redroot pigweed (redroot pigweed)	Herbicidal effects Foxtail meadow (foxtail meadow [4])	Herbicidal effects Barnyardgrass (barnyardgrass [5])	Herbicidal effects Bulrush (bulrush)	Herbicidal effects Sagittaria Pygmaea (Sagittaria pygmaea)	Herbicidal effects Barnyardgrass (barnyardgrass [6])	Herbicidal effects Johnsongrass (johnsongrass [7])	Herbicidal effects Green foxtail (green foxtail [8])	Herbicidal effects Foxtail meadow (foxtail meadow [9])	Injury Rice (rice)
CCc1ccc(C=CCON=Cc2ccccc2Oc2nc(OC)cc(OC)n2)cc1 [compound 37]	93	4 (6-10 (Severe damages))	5 (0-5 (Death))	5 (0-5 (Death))	5 (0-5 (Death))	4 (6-10 (Severe damages))	5 (0-5 (Death))	4 (6-10 (Severe damages))	4 (6-10 (Severe damages))	4 (6-10 (Severe damages))	4 (6-10 (Severe damages))	5 (0-5 (Death))	5 (0-5 (Death))	5 (0-5 (Death))	0 (91-100 (No damages))
COc1cccc(C=CCON=Cc2ccccc2Oc2nc(OC)cc(OC)n2)c1 [compound 38]	91	4 (6-10 (Severe damages))	5 (0-5 (Death))	5 (0-5 (Death))	5 (0-5 (Death))	4 (6-10 (Severe damages))	4 (6-10 (Severe damages))	5 (0-5 (Death))	4 (6-10 (Severe damages))	5 (0-5 (Death))	4 (6-10 (Severe damages))	5 (0-5 (Death))	5 (0-5 (Death))	4 (6-10 (Severe damages))	0 (91-100 (No damages))
COc1cc(OC)nc(Oc2ccccc2C=NOCC=Cc2ccccc2Br)n1 [compound 40]	94	4 (6-10 (Severe damages))	5 (0-5 (Death))	4 (6-10 (Severe damages))	4 (6-10 (Severe damages))	5 (0-5 (Death))	5 (0-5 (Death))	5 (0-5 (Death))	3 (11-40 (Medium damages))	5 (0-5 (Death))	5 (0-5 (Death))	4 (6-10 (Severe damages))	4 (6-10 (Severe damages))	5 (0-5 (Death))	0 (91-100 (No damages))
COc1cc(OC)nc(Oc2ccccc2C=NOCC=Cc2cccc(Cl)c2Cl)n1 [compound 41]	89	4 (6-10 (Severe damages))	5 (0-5 (Death))	4 (6-10 (Severe damages))	5 (0-5 (Death))	5 (0-5 (Death))	4 (6-10 (Severe damages))	5 (0-5 (Death))	4 (6-10 (Severe damages))	5 (0-5 (Death))	5 (0-5 (Death))	4 (6-10 (Severe damages))	4 (6-10 (Severe damages))	4 (6-10 (Severe damages))	0 (91-100 (No damages))
COc1cc(OC)nc(Oc2ccccc2C=NOCC#Cc2ccccc2)n1 [compound 42]	93	4 (6-10 (Severe damages))	5 (0-5 (Death))	5 (0-5 (Death))	3 (11-40 (Medium damages))	5 (0-5 (Death))	5 (0-5 (Death))	5 (0-5 (Death))	4 (6-10 (Severe damages))	5 (0-5 (Death))	5 (0-5 (Death))	5 (0-5 (Death))	5 (0-5 (Death))	5 (0-5 (Death))	0 (91-100 (No damages))
